Results: PubChem BioAssay AID1963866 (Molecular Pharmacology Branch, DTP, NCI, 2024)

System: PDC KRAS tumor spheroids with HUVEC/MSC, viability
Test: Anticancer human tumor 349418-098-R-PDC patient-derived lung adenocarcinoma cell line growth inhibition [KRAS2]
Conditions: for IC50: curve of first compound; for viability, T/C: stronger effect = lower value
How it was run: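 KRAS-mutant tumor cells were grown as spheroids with HUVEC endothelial cells and human MSCs as stroma. Targeted agents were tested alone and with KRAS pathway inhibitors. Doses started at or near clinical Cmax, or 10 microM, descending half-log.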

[1] = second compound 0.1 µM, first compound 0.0316 µM
[2] = second compound 0.1 µM, first compound 0.1 µM
[3] = second compound 0.1 µM, first compound 0.316 µM
[4] = second compound 0.1 µM, first compound 1 µM
[5] = second compound 0.1 µM, first compound 3.16 µM
[6] = second compound 0.1 µM, first compound 10 µM
[7] = second compound 0.316 µM, first compound 0.0316 µM
[8] = second compound 0.316 µM, first compound 0.1 µM
[9] = second compound 0.316 µM, first compound 0.316 µM
[10] = second compound 0.316 µM, first compound 1 µM
[11] = second compound 0.316 µM, first compound 3.16 µM
[12] = second compound 0.316 µM, first compound 10 µM
[13] = second compound 1 µM, first compound 0.0316 µM
[14] = second compound 1 µM, first compound 0.1 µM
[15] = second compound 1 µM, first compound 0.316 µM
[16] = second compound 1 µM, first compound 1 µM
[17] = second compound 1 µM, first compound 3.16 µM
[18] = second compound 1 µM, first compound 10 µM
[19] = second compound 3.16 µM, first compound 0.0316 µM
[20] = second compound 3.16 µM, first compound 0.1 µM
[21] = second compound 3.16 µM, first compound 0.316 µM
[22] = second compound 3.16 µM, first compound 1 µM
[23] = second compound 3.16 µM, first compound 3.16 µM
[24] = second compound 3.16 µM, first compound 10 µM
[25] = second compound 10 µM, first compound 0.0316 µM
[26] = second compound 10 µM, first compound 0.1 µM
[27] = second compound 10 µM, first compound 0.316 µM
[28] = second compound 10 µM, first compound 1 µM
[29] = second compound 10 µM, first compound 3.16 µM
[30] = second compound 10 µM, first compound 10 µM
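Note: spheroids exposed to compounds for seven days before readout.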

Structure (SMILES) | IC50 (second compound 0.1 µM) | IC50 (second compound 0.316 µM) | IC50 (second compound 1 µM) | IC50 (second compound 3.16 µM) | IC50 (second compound 10 µM) | viability, T/C [1] | viability, T/C [2] | viability, T/C [3] | viability, T/C [4] | viability, T/C [5] | viability, T/C [7] | viability, T/C [8] | viability, T/C [9] | viability, T/C [10] | viability, T/C [11] | viability, T/C [13] | viability, T/C [14] | viability, T/C [15] | viability, T/C [16] | viability, T/C [17] | also measured
CC(C)NCC(C(=O)N1CCN(c2ncnc3c2C(C)CC3O)CC1)c1ccc(Cl)cc1 (stereo not given) + CNCc1ccccc1-c1csc(C(C)Nc2nc(C)nc3cc(OC)c(OC)cc23)c1 | 257 nM | 208 nM | 106 nM | < 31.6 nM | < 31.6 nM | 95% | 88% | 39.6% | 22.7% | 14.1% | 96.5% | 68.6% | 39.3% | 19.7% | 12.6% | 79.1% | 52.3% | 16.3% | 9.95% | 1.69% | viability, T/C [6]: 6.42%; viability, T/C [12]: 6.01%; viability, T/C [18]: 3.8%; viability, T/C [19]: 0.09%; viability, T/C [20]: 0.11%; viability, T/C [21]: 0.03%; viability, T/C [22]: 0.03%; viability, T/C [23]: 0.27%; viability, T/C [24]: 0.09%; viability, T/C [25]: 0.08%; viability, T/C [26]: 0.08%; viability, T/C [27]: 0.07%; viability, T/C [28]: 0.25%; viability, T/C [29]: 0.07%; viability, T/C [30]: 0.13%
CC1COCCN1c1cc(-c2ccnn2C)c2ccnc(-c3ccn[nH]3)c2n1 (stereo not given) + CNCc1ccccc1-c1csc(C(C)Nc2nc(C)nc3cc(OC)c(OC)cc23)c1 | 25 nM | 29.9 nM | 18.5 nM | < 10 nM | < 10 nM | 33.4% | 10.6% | 7.11% | 5.04% | 3.83% | 47.1% | 11.1% | 5.41% | 4.13% | 3.71% | 13.4% | 3.84% | 4.41% | 3.23% | 2.84% | viability, T/C (second compound 0.1 µM, first compound 0.01 µM): 114%; viability, T/C (second compound 0.316 µM, first compound 0.01 µM): 107%; viability, T/C (second compound 1 µM, first compound 0.01 µM): 92.1%; viability, T/C (second compound 3.16 µM, first compound 0.01 µM): 0.09%; viability, T/C [19]: 0.21%; viability, T/C [20]: 0.12%; viability, T/C [21]: 0.03%; viability, T/C [22]: 0.04%; viability, T/C [23]: 0.13%; viability, T/C (second compound 10 µM, first compound 0.01 µM): 0.08%; viability, T/C [25]: 0.07%; viability, T/C [26]: 0.07%; viability, T/C [27]: 0.07%; viability, T/C [28]: 0.08%; viability, T/C [29]: 0.13%
O=C(c1cc(Cc2n[nH]c(=O)c3ccccc23)ccc1F)N1CCN(C(=O)C2CC2)CC1 + C=CC(=O)N1CCN(c2nc(=O)n(-c3c(C)ccnc3C(C)C)c3nc(-c4c(O)cccc4F)c(F)cc23)C(C)C1 | 95.8 nM | 350 nM | 1630 nM | 1310 nM | < 31.6 nM | 84.6% | 47.1% | 32.3% | 21.4% | 17.5% | 92.6% | 86.3% | 52.2% | 26.3% | 30% | 100% | 92.8% | 83.1% | 71.2% | 20.6% | viability, T/C [6]: 14.8%; viability, T/C [12]: 17.2%; viability, T/C [18]: 20.9%; viability, T/C [19]: 68.7%; viability, T/C [20]: 67.2%; viability, T/C [21]: 75.8%; viability, T/C [22]: 51.9%; viability, T/C [23]: 33.7%; viability, T/C [24]: 18.3%; viability, T/C [25]: 42%; viability, T/C [26]: 43.9%; viability, T/C [27]: 36.3%; viability, T/C [28]: 27%; viability, T/C [29]: 29.2%; viability, T/C [30]: 14%
